Test results taken from patent publication EP0452507A1, “MEDICINE COMPRISING TOCOPHERYL GLYCOSIDE AS ACTIVE INGREDIENT” (NIPPON HYPOX LABORATORIES INCORPORATED, priority 1989, dated 1991).

System: adjuvant arthritis
Assay: adjuvant arthritis (Freund's complete adjuvant), right hind paw swelling by volumetry
Assay type: in vivo, rats
Details: Example 6, Fig. 5; for inhibition activity against acute inflammation (before the 14th day) and adjuvant arthritis (after 17th day): VIE-MAN 10 and 30 mg/kg/day, depending upon the dose, indomethacin 10 mg/kg/day, intraperitoneally
Description: 24 male SD rats weighing 180 to 220 g were used, and measured for a size of the subplantar region of the right hind paw. As a substance to cause adjuvant arthritis, 0.05 ml/rat of Freund's complete adjuvant [ADJUVANT COMPLETEFREUND, trade name, supplied by Difco] was used.
Then, the above Freund's complete adjuvant was administered intracutaneously into the subplantar region of right hind paw of each rat, and 24 hours after the administration, the swelling on the right hind paw of each rat was measured by volumetry to determine a swelling ratio. The above rats were separated into four groups each consisting of 6 rats such that the average swelling ratio of one group was nearly equal to that of another group.
Thereafter, one out of the four groups was used as Control group. A physiological saline solution of 10 % Nikkol was administered intraperitoneally to each rat of this group for the consecutive 22 days after the group separation, and the swelling on the right hind paw was measured by volumetry every day after the administration of the physiological saline solution of 10 % Nikkol. The average of swelling ratios as a group for each day was determined on the basis of the values of the sizes of the subplantar regions of the right hind paws obtained by the measurement prior to the administration of the Freund's complete adjuvant.
The procedure for Control group was repeated except that a physiological saline solution of 10 % Nikkol containing VIE-MAN in place of the physiological saline solution of 10 % Nikkol was administered intraperitoneally in such a dose that the amount of VIE-MAN was 10 mg/kg/day.
The procedure for Control group was repeated except that a physiological saline solution of 10 % Nikkol containing VIE-MAN in place of the physiological saline solution of 10 % Nikkol was administered intraperitoneally in such a dose that the amount of VIE-MAN was 30 mg/kg/day.
The remaining one group was used as Comparative Example group ⓕ. The procedure for Example groups @ and @ was repeated except that a physiological saline solution of 10 % Nikkol containing indomethacin which was a nonsteroidal anti-inflammatory preparation (antipyretic analgesic antiphlogistic preparation) in place of the physiological saline solution of 10 % Nikkol was administered intraperitoneally in such a dose that the amount of the indomethacin was 10 mg/kg/day, and the average of swelling ratios as a group was determined.

## Cc1c(C)c2c(c(C)c1OC1OC(CO)C(O)C(O)C1O)CCC(C)(CCCC(C)CCCC(C)CCCC(C)C)O2 (racemic) [VIE-MAN, dl-a-tocopheryl-a-D-mannoside]
10 and 30 mg/kg/day intraperitoneally for 22 days, versus Control group
  average of the swelling ratios: significantly lower than that of the swelling ratios of Control group
  inhibition activity against acute inflammation (before the 14th day) and adjuvant arthritis (after 17th day): excellent inhibition activity

## COc1ccc2c(c1)c(CC(=O)O)c(C)n2C(=O)c1ccc(Cl)cc1 [indomethacin, reference compound]
  inhibition activity against acute inflammation (before the 14th day) and adjuvant arthritis (after 17th day): showed inhibitory activity against both acute inflammation and adjuvant arthritis
Indomethacin 10 mg/kg/day intraperitoneally
  activity against acute inflammation and adjuvant arthritis compared with VIE-MAN: much lower than that of VIE-MAN
